Assay results: US5994334A, “Androgen synthesis inhibitors” (priority 1997, dated 1999)
“Also recorded” adds a separate entry of the source. Where two headings read alike, the source gives them in different places.

How the values were obtained:
[1] = molecular target: T1, Human Testicular C17,20-lyase (Homo sapiens, UniProt P05093); assay: Inhibition of human testicular C17,20-lyase (pregnenolone substrate, testicular microsomes); assay type: biochemical
T1 construct: incubating human testicular microsomes; from tissue; host or cells: human testis, microsomes
T1 sequence (P05093 1-508): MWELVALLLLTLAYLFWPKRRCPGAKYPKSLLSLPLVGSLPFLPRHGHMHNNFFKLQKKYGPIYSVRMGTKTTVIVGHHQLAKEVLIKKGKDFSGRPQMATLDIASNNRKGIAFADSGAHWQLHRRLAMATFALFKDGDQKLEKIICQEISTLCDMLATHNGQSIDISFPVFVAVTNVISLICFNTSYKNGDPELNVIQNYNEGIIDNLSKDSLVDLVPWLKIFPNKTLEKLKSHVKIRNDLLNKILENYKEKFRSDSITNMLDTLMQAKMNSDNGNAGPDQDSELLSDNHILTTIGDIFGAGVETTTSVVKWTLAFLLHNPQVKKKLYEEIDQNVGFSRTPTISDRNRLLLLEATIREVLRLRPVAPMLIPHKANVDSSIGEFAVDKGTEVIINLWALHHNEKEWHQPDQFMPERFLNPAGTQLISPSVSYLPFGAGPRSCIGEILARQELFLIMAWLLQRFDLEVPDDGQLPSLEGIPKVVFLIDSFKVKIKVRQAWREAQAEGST
In short: (§1)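 Radiolabeled pregnenolone, human testicular microsomes, test compound at varied concentrations; reverse-phase HPLC of substrate and metabolites. 17α-OHase = pregnenolone → 17α-OH-pregnenolone + DHEA; lyase = pregnenolone → DHEA.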

adrenal 17α-hydroxylase = assay: Inhibition of adrenal 17α-hydroxylase; assay type: biochemical; conditions: guinea pig adrenal
Experimental: (§2) These studies were carried out using guinea pig adrenals. In contrast to the rat, the guinea pig synthesizes cortisol, like the human. […] I-5 and I-7 were of interest, as they had relatively little (4%) or no effect on the adrenal 17α-hydroxylase required for cortisol synthesis but had moderately strong effects on the C17,20 -lyase causing reduction in adrenal androgen synthesis (77% and 63%, respectively).

adrenal C17,20-lyase = assay: Inhibition of adrenal C17,20-lyase; assay type: biochemical; conditions: guinea pig adrenal
Experimental: as §2

[2] = molecular target: T2, Human Prostatic 5α-Reductase (Homo sapiens, UniProt P31213); assay: Inhibition of human prostatic 5α-reductase (prostatic microsomes, [3H]testosterone); conditions: for inhibition at 0.01 µM: read-out: % Inhibition of 5α-reductase, [I] 10 nM; for inhibition at 0.1 µM: read-out: % Inhibition of 5α-reductase, [I] 100 nM
T2 sequence (P31213 1-254): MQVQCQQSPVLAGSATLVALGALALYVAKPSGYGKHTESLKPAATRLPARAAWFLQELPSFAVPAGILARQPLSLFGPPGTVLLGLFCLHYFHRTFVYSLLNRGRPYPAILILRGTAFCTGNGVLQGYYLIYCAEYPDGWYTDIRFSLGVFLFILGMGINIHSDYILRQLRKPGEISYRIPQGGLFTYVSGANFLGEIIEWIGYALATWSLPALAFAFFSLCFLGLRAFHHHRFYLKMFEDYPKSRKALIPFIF

[3] = molecular target: T3, Human Testicular 17α-Hydroxylase (Homo sapiens, UniProt P05093); assay: Inhibition of human testicular 17α-hydroxylase (pregnenolone substrate, testicular microsomes); assay type: biochemical
T3 construct: incubating human testicular microsomes; from tissue; host or cells: human testis, microsomes
T3 sequence (P05093 1-508): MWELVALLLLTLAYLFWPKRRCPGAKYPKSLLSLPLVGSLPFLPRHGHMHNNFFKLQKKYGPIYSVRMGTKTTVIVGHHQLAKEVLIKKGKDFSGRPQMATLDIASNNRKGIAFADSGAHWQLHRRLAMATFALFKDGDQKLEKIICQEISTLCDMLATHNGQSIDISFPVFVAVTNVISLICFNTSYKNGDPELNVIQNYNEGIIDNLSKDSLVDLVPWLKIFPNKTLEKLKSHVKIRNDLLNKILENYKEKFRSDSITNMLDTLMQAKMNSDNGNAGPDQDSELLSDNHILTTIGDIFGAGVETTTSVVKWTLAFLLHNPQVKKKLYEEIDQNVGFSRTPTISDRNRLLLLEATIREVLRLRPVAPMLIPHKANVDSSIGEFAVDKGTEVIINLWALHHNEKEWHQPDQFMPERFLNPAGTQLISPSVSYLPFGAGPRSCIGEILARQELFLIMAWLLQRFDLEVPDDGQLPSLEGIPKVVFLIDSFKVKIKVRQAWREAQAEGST
In short: as §1

[4] = molecular target: T4, human 17α-hydroxylase/C17,20-lyase (Homo sapiens, UniProt P05093); assay: Inhibition of human testicular 17α-hydroxylase/C17,20-lyase (enzyme complex as a whole); assay type: biochemical; conditions: for inhibition of 17α-hydroxylase/C17,20-lyase (in words): NI = no inhibition
T4 construct: incubating human testicular microsomes; from tissue; host or cells: human testis, microsomes
T4 sequence (P05093 1-508): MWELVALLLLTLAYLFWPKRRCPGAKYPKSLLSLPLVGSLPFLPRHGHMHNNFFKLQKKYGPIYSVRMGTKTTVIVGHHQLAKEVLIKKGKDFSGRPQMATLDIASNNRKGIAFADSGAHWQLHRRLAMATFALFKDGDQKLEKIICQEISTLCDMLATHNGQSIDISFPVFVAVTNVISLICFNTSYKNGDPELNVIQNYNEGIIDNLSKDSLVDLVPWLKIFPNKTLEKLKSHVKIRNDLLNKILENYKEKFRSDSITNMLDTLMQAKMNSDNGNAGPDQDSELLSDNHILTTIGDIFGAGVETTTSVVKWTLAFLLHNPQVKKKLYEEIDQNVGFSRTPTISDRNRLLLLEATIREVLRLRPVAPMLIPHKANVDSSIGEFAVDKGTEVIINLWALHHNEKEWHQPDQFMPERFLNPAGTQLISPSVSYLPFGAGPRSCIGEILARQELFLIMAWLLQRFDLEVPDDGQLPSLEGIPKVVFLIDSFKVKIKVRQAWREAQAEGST
In short: as §1

[5] = tested on: adrenal 17α-hydroxylase/C17,20-lyase; assay: Inhibition of adrenal 17α-hydroxylase/C17,20-lyase; assay type: biochemical; conditions: guinea pig adrenal
[6] = molecular target: human androgen receptor (AR) (Homo sapiens, UniProt P10275); assay: Androgen receptor-mediated gene transcription, wild-type AR (luciferase, CV1 cells); assay type: cell-based; conditions: against DHT stimulation
Sequence of human androgen receptor (AR) (P10275 whole entry): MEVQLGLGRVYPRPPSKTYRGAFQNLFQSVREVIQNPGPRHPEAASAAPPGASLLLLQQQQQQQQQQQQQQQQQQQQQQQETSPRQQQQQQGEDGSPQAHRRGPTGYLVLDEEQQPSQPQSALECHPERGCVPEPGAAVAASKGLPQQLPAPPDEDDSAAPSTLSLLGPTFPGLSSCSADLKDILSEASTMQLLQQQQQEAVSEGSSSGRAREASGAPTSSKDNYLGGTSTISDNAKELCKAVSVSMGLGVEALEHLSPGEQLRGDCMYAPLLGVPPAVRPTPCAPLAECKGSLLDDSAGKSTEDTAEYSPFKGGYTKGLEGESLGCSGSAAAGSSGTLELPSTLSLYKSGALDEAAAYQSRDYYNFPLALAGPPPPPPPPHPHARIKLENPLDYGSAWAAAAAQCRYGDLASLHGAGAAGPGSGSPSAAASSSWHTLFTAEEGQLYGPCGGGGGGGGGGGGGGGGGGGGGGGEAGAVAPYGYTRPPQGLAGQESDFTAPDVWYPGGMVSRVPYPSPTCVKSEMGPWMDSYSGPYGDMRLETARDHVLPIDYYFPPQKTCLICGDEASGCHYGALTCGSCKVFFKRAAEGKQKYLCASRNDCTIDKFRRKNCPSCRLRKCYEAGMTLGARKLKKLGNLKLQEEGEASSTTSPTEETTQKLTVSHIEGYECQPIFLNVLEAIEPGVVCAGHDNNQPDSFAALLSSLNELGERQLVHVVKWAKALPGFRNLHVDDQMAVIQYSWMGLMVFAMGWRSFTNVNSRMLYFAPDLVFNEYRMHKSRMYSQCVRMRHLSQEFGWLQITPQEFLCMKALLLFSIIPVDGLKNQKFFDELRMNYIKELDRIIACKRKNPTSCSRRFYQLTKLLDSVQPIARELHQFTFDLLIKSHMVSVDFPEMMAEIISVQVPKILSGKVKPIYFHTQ

[7] = tested on: mutant AR which is expressed in LNCaP cells; assay: Androgen receptor-mediated gene transcription, mutant AR of LNCaP cells (luciferase, CV1 cells); assay type: cell-based, human
[8] = tested on: LNCaP human prostatic cancer cell line; assay: Androgen-dependent growth of LNCaP cells
Experimental: The ability of various inhibitors to reverse the stimulatory effect of testosterone on the growth of the LNCaP human prostatic cancer cell line was tested by comparing cell number in wells treated for 9 days with either drug vehicle only (control), 0.1 nM testosterone only, or 0.1 nM testosterone with inhibitor at 0.3, 1, 2.5, or 5 μM.

[9] = tested on: human prostatic tissue (BPH or prostate cancer); assay: Prostate tissue in histoculture, DNA synthesis ([3H]-thymidine uptake); conditions: inhibitor 1 μM
Experimental: We recently developed a histoculture method to evaluate the growth inhibiting properties of the compounds on human prostatic tissue. […] The tissue samples were then incubated for 3 days in fresh medium/treatment containing 2 μCi/ml [^3 H]-thymidine. Tissue was then digested and DNA extracted. For each sample, [^3 H]-thymidine uptake was normalized to DNA content. […] This finding is consistent with the compound acting as an antiandrogen. None of the compounds produced an independent effect on DNA synthesis in the absence of added androgens.

[10] = tested on: LNCaP human prostatic tumors; assay: Human prostatic cancer (LNCaP) xenograft in male nude mice; assay type: in vivo, human (LNCaP) tumors in BALB/c male athymic mice; conditions: five weeks
Experimental: We have reported that inoculation of MCF-7 breast cancer cells in Matrigel increases mammary tumor formation in nude mice (Yue et al., 1994). The same procedure was therefore utilized to develop tumors from human prostatic cancer cells (LNCAP) in male nude mice. BALB/c male athymic mice, 4-6 weeks old, were inoculated sc with LNCaP cells suspended in Matrigel (10 mg/ml). Four sites per mouse were injected with 1.8×10^6 cells in 0.1 ml Matrigel. Treatment began when the tumor reached about 100 mm^3 in volume. Tumors were measured before the treatment began and once a week during treatment. Tumor volume was calculated by the formula 4/3πr1^2 r2 (r1 <r2).At the end of treatment, the mice were sacrificed and individual tumors were weighed. The latency of tumor development was 30-40 days and overall tumorigenicity was 82%.
In a further experiment, two mice were treated with I-16 (1 mg/mouse/day, s.c.) beginning 45 days after cell inoculation. Two mice received vehicle as controls. […] The mean tumor weight was 198.78±72 mg in I-16 treated mice compared to 386.3±147.2 mg in the control group. In other experiments, I-47 and I-49 were effective in controlling tumor growth. The total tumor volume of the control mice increased to 884.0% of the initial volume.

[11] = Table 1, NI = no inhibition, CI = complete inhibition, read-out: IC50 C17,20 lyase

C[C@]12CC[C@H]3[C@@H](CC=C4C[C@@H](O)CC[C@@]43C)[C@@H]1CC[C@@H]2[C@]1(C)CO1 [Compound I-7]
IC50 [1, 11]: 720 nM | effect on adrenal 17α-hydroxylase (in words) (adrenal 17α-hydroxylase): no effect | reduction in adrenal androgen synthesis (C17,20-lyase) (adrenal C17,20-lyase): 63% | inhibition at 0.01 µM [2]: 13.6% | inhibition at 0.1 µM [2]: 12.1%

C[C@]12CC[C@H]3[C@@H](CC=C4C[C@@H](O)CC[C@@]43C)[C@@H]1CC[C@@H]2c1c[nH]cn1 [Compound I-47, 17β-(4'-imidazolyl)-androst-5-en-3β-ol]
IC50 ([3]; Table 1, NI = no inhibition, read-out: IC50 17α-OHase): 25 nM | IC50 ([3]; Table 3, first figure of 17α-hydroxylase/lyase pair, read-out: IC50 17α-hydroxylase): 25.2 nM | IC50 ([3]; first figure of pair, read-out: IC50 17α-hydroxylase): 11 nM | IC50 [1, 11]: 23 nM | IC50 ([1]; Table 3, second figure of pair, CI = complete inhibition, read-out: IC50 lyase): 22.6 nM | IC50 ([1]; second figure of pair, read-out: IC50 C17,20-lyase): 7 nM | inhibition of 17α-hydroxylase/C17,20-lyase (in words) [4]: potent inhibitors | times more potent than ketoconazole ([4]; vs ketoconazole): 10-50 times | effect on adrenal enzyme (in words) [5]: very little effect | antagonism of wild-type AR (in words) [6]: dose-dependent antagonism | agonism/antagonism at mutant AR of LNCaP cells (in words) [7]: antagonist; also recorded: not an agonist of the mutant receptor | reversal of DHT-stimulated LNCaP growth (in words) ([8]; 0.03 nM DHT): dose-dependent reversal | reversal of DHT-stimulated LNCaP growth at 5 μM (in words) ([8]; 0.03 nM DHT, inhibitor 5 μM): nearly complete reversal | reversal of testosterone-stimulated LNCaP growth at 5 μM (in words) ([8]; 0.1 nM testosterone, inhibitor 5 μM): almost completely reversed | reversal of testosterone-stimulated LNCaP growth (in words) ([8]; 0.1 nM testosterone, inhibitor 0.3-5 μM, 9 days): dose-dependent reversal | IC50 ([8]; Homo sapiens, LNCaP, 216 h, read-out: concentration reducing the stimulatory effect of testosterone by 50%): ≤ 1000 nM | reversal of DHT-stimulated DNA synthesis (in words), 1 μM ([9]; DHT 10 nM): almost completely reversed | reversal of testosterone-stimulated DNA synthesis (in words), 1 μM ([9]; testosterone 1 μM, FIG. 1): almost complete reversal | total tumor volume (% of initial volume), 5 weeks ([10]; 4 mice per group, control 884.0%, FIG. 2): 525.8% | mean tumor weight, 5-week experiment ([10]; control 1310.5±1125.9 mg, I-49 p<0.05 vs control): 607.0 ± 142.4 mg

CC(=NO)C1=CC[C@H]2[C@@H]3CC=C4C[C@@H](O)CC[C@]4(C)[C@H]3CC[C@]12C [Compound I-5, 16-dehydropregnenolone-20-oxime]
IC50 ([3]; IC50 17α-OHase): 16 nM | IC50 ([1]; IC50 C17,20 lyase): 16 nM | inhibition of 17α-hydroxylase/C17,20-lyase (in words) [4]: potent inhibition | fold more potent inhibition than 20-oxime (I-1) ([4]; vs I-1): 35 fold | effect on adrenal 17α-hydroxylase (adrenal 17α-hydroxylase; 17α-hydroxylase required for cortisol synthesis): 4% | reduction in adrenal androgen synthesis (C17,20-lyase) (adrenal C17,20-lyase): 77% | inhibition at 0.01 µM [2]: 0% | inhibition at 0.1 µM [2]: 5.92%
